From BindingDB's records for doi:10.1021/jm020134i (Northwestern University, 2002)
pKi: −log10 of the molar value.

Assay: Concentration dependent inactivation of gGamma-amino-N-butyrate transaminase

Question: With `N[C@@H]1C=CC[C@H](C(=O)O)C1` [5-Amino-cyclohex-3-enecarboxylic acid] as the compound, how does the pKi read?
Answer: 2.64
